What all share (assay): inhibition of tumour cell growth, NCI panel, 48 h
Experiment [1] concerns CAKI-1 renal.
Experiment [2] relates to HL-60(TB) leukemia.
For experiment [3], the system named is IGROV1 ovarian.
The subject of experiment [4] is K-562 leukemia.
Experiment [5] deals with MDA-MB-435.
Experiment [6] relates to NCI-H23 lung.
Experiment [7] concerns SK-MEL-2 melanoma.
The test system of experiment [8] is U251 CNS.
The subject of experiment [9] is UACC-257 melanoma.
The test system of experiment [10] is UO-31 renal.

This note sets out measurements from PubChem BioAssay (NCI).

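All cell lines were grown in 96-well plates and treated with compound for 48 hours. GI50 is the concentration that inhibits growth by half. TGI denotes the concentration required for complete inhibition of growth.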

In the case of `c1ccc(Nc2ncc(-c3ccccc3)o2)cc1`, the GI50 in experiment [1] is 17.8 µM; in [2], 24 µM; in experiment [3], over 22 µM; in experiment [4], over 25 µM; in experiment [5], over 25 µM; in experiment [6], over 25 µM. The GI50 in experiment [7] is over 25 µM; in [8] it was over 25 µM; in [9] it was over 25 µM; in [10], 9.95 µM. Also, the TGI in experiment [1], in experiment [2], in [3], in experiment [4], in [5] and in [6] was over 25 µM in each case. Moreover, the TGI in experiment [7], in experiment [8], in [9] and in experiment [10] was over 25 µM in each case.
For `NC(=S)N/N=C1\c2cc(Cl)ccc2-c2c1cc(Cl)cc2[N+](=O)[O-]`, the GI50 in [1] was 7.21 µM; in experiment [2] it was 6.15 µM; in experiment [3] it was 5.68 µM; in experiment [4] it was 4.76 µM; in [5], 7.28 µM; in experiment [6], 3.86 µM. Moreover, the GI50 is 7.96 µM in experiment [7], 2.99 µM in experiment [8], 6.56 µM in [9] and 4.81 µM in experiment [10]. Besides, the TGI in experiment [1] was over 100 µM; in experiment [2] it was 51.9 µM; in [3], over 100 µM; in experiment [4], over 100 µM; in experiment [5], over 100 µM; in [6], over 100 µM. Also, the TGI in experiment [7] was 89.8 µM; in experiment [8], 14.9 µM; in [9], over 100 µM; in experiment [10], 70.2 µM.
In the case of `COC(=O)/C=C/c1cc(OC(C)=O)c2c(c1)[C@@H](C(=O)OC)[C@H](c1ccc(OC(C)=O)c(OC(C)=O)c1)O2`, the GI50 in [1] was 0.314 µM; in experiment [2], 0.0288 µM; in experiment [3], 0.176 µM; in experiment [4], 0.0378 µM; in experiment [5] it was 0.0166 µM; in experiment [6], 0.0912 µM. Further, the GI50 in experiment [7] was 0.268 µM; in [8] it was 0.114 µM; in experiment [9], 1.45 µM; in experiment [10] it was 0.131 µM. The TGI was 44.7 µM in [1]; 0.0934 µM in [2]; 38.3 µM in [3]; over 49.2 µM in [4]; 0.0466 µM in experiment [5]; 29.7 µM in experiment [6]. The TGI in [7] was 70 µM; in [8], 41 µM; in experiment [9], 56.2 µM; in experiment [10] it was 38 µM.
Turning to `COc1cc2c(cc1OC)-c1cc(OC)c(OC)cc1C(CN(C)C)C2` (centres undefined), the GI50 in [1], in experiment [2], in [3], in experiment [4], in [5] and in experiment [6] was over 10 µM throughout. The GI50 in experiment [7], in experiment [8], in experiment [9] and in experiment [10] was over 10 µM throughout. Also, the TGI in experiment [1], in experiment [2], in [3], in experiment [4], in experiment [5] and in experiment [6] was over 10 µM throughout. Moreover, the TGI in experiment [7], in experiment [8], in experiment [9] and in [10] was over 10 µM each time.
With `COCCn1cc(-c2nc(-c3cc4cccnc4[nH]3)cs2)c2cc(OC)ccc21`, the GI50 in experiment [1] is 3.01 µM; in [2], 2.95 µM; in [3], 0.81 µM; in experiment [4], 3.48 µM; in [5], 5.27 µM; in experiment [6] it was 1.5 µM. The GI50 in experiment [7] was 3.05 µM; in [8], 3.6 µM; in [9], 4.26 µM; in experiment [10], 1.84 µM. The TGI is over 82.4 µM in experiment [1]; 13.3 µM in experiment [2]; over 34.5 µM in experiment [3]; over 27.3 µM in experiment [4]; over 100 µM in [5]; 10.8 µM in [6]. Also, the TGI in experiment [7] is 12.8 µM; in experiment [8] it was over 59.3 µM; in [9], 9.81 µM; in [10] it was 11 µM.
Turning to `COc1cc2c(cc1OC)C(Cl)C(c1ccc(F)cc1)=C2Cl` (centres undefined), the TGI in experiment [1] was 29.1 µM; in [2] it was 24.2 µM; in [3], 37.2 µM; in experiment [4] it was 44.6 µM; in experiment [5], 23.6 µM; in [6], 16.5 µM. Besides, the TGI was 26.5 µM in experiment [7], 26.6 µM in experiment [8], 28.8 µM in experiment [9] and 33.3 µM in experiment [10].
Turning to `C/C=C/[C@@H]1O[C@@H]2COC(=O)C2=C[C@@H]1O`, the GI50 in experiment [1] is 2.14 µM; in experiment [2], 10.6 µM; in experiment [3], 18.6 µM; in [4], 2.53 µM; in [5], 18.8 µM; in [6], 14.1 µM. The GI50 in experiment [7] was 33.1 µM; in experiment [8], 18.9 µM; in [9], 21 µM; in experiment [10], 4.21 µM. In addition, the TGI was 5.03 µM in experiment [1]; over 100 µM in [2]; over 84 µM in experiment [3]; 37.3 µM in [5]; 37.3 µM in [6]; over 79.7 µM in experiment [7]. Also, the TGI in experiment [8] was 38.3 µM; in experiment [9], 36.9 µM; in experiment [10], over 51.6 µM.
Consider `CN1CCN(C(=O)COc2ccc(C34CC5CC(CC(C5)C3)C4)cc2)CC1`, for which the GI50 was 15.6 µM in experiment [1]; 4.7 µM in [2]; 15 µM in [3]; 4.38 µM in experiment [4]; 14.6 µM in experiment [5]; 15.3 µM in experiment [6]. The GI50 in [7] is 15.5 µM; in experiment [8], 10.8 µM; in experiment [9], 12.8 µM; in experiment [10], 12.4 µM. For the same compound, the TGI in experiment [1] stood at 30.2 µM; in experiment [2], 23.2 µM; in [3] it was 39.2 µM; in [4], 46.5 µM; in experiment [5] it was 28.8 µM; in experiment [6] it was 36.7 µM. The TGI is 30.4 µM in experiment [7], 25 µM in experiment [8], 31.9 µM in experiment [9] and 25 µM in experiment [10].
Consider `CC(=O)OCc1ccc2c(c1)C(O)NC(=O)O2` (centres undefined), for which the TGI in experiment [1], in experiment [2], in [3], in experiment [4], in experiment [5] and in experiment [6] was over 100 µM in each case. In addition, the TGI in [7], in [8], in [9] and in experiment [10] was over 100 µM in each case.
On to `O=C1C(Br)=C(Br)C(=O)c2ccc(=O)ccc21`, for which the TGI in experiment [1] is 64.2 µM; in experiment [2], 13.7 µM; in experiment [3], over 66.1 µM; in experiment [4] it was over 61.9 µM; in [5] it was 33.3 µM; in [6] it was 43.1 µM. Further, the TGI was over 75.1 µM in experiment [7], 61.4 µM in [8], 58.3 µM in [9] and 34.9 µM in experiment [10].
